Experimental data taken from the NIST ThermoML archive (doi:10.1016/j.jct.2017.06.001).
± gives the expanded uncertainty stated by the source.

Assay: xn = mol fraction of the nth substance listed
Details: 100 kPa, Liquid; for mass density: 293.15 K, Vibrating tube method; for speed of sound: 298.15 K, Frequency=5 MHz, Pulse-echo method

OCCCCCO [1,5-pentanediol] + O
mass density (x1 = 0.5003): 999.3 ± 1.5 kg/m3 | mass density (x1 = 0.5362): 998.5 ± 1.5 kg/m3 | mass density (x1 = 0.6177): 996.9 ± 1.7 kg/m3 | mass density (x1 = 0.6478): 996.3 ± 1.7 kg/m3 | mass density (x1 = 0.7025): 995.2 ± 1.8 kg/m3 | mass density (x1 = 0.7504): 994.4 ± 1.9 kg/m3 | mass density (x1 = 0.7927): 993.6 ± 2 kg/m3 | mass density (x1 = 0.8605): 992.3 ± 2.1 kg/m3 | mass density (x1 = 0.9004): 991.5 ± 2.2 kg/m3 | mass density (x1 = 0.9496): 990.4 ± 2.3 kg/m3 | mass density (x1 = 1): 989.3 ± 2.1 kg/m3 | speed of sound (x1 = 0.0002): 1497.3 ± 1.1 m/s | speed of sound (x1 = 0.0006): 1498.9 ± 1.1 m/s | speed of sound (x1 = 0.0012): 1501.2 ± 1.1 m/s | speed of sound (x1 = 0.0018): 1503.4 ± 1.1 m/s | speed of sound (x1 = 0.0026): 1506.3 ± 1.1 m/s | speed of sound (x1 = 0.004): 1511.1 ± 1.1 m/s | speed of sound (x1 = 0.0054): 1515.9 ± 1.1 m/s | speed of sound (x1 = 0.0067): 1520.1 ± 1.2 m/s | speed of sound (x1 = 0.0083): 1525.4 ± 1.2 m/s | speed of sound (x1 = 0.0097): 1529.9 ± 1.2 m/s | speed of sound (x1 = 0.0113): 1534.7 ± 1.2 m/s | speed of sound (x1 = 0.0123): 1537.8 ± 1.2 m/s | speed of sound (x1 = 0.0138): 1542.2 ± 1.2 m/s | speed of sound (x1 = 0.0153): 1546.5 ± 1.2 m/s | speed of sound (x1 = 0.0168): 1550.8 ± 1.2 m/s | speed of sound (x1 = 0.0184): 1555.2 ± 1.2 m/s | speed of sound (x1 = 0.0195): 1558 ± 1.2 m/s | speed of sound (x1 = 0.0205): 1560.8 ± 1.2 m/s | speed of sound (x1 = 0.0221): 1564.7 ± 1.2 m/s | speed of sound (x1 = 0.0243): 1570.1 ± 1.2 m/s | speed of sound (x1 = 0.0264): 1575.3 ± 1.2 m/s | speed of sound (x1 = 0.0287): 1580.3 ± 1.2 m/s | speed of sound (x1 = 0.0308): 1584.9 ± 1.2 m/s | speed of sound (x1 = 0.0326): 1588.7 ± 1.2 m/s | speed of sound (x1 = 0.0347): 1593 ± 1.2 m/s | speed of sound (x1 = 0.0362): 1596.1 ± 1.2 m/s | speed of sound (x1 = 0.0378): 1599.1 ± 1.2 m/s | speed of sound (x1 = 0.0396): 1602.6 ± 1.2 m/s | speed of sound (x1 = 0.0414): 1605.7 ± 1.2 m/s | speed of sound (x1 = 0.0432): 1608.9 ± 1.2 m/s | speed of sound (x1 = 0.045): 1612 ± 1.2 m/s | speed of sound (x1 = 0.0465): 1614.4 ± 1.2 m/s | speed of sound (x1 = 0.0484): 1617.3 ± 1.2 m/s | speed of sound (x1 = 0.0503): 1620.2 ± 1.2 m/s | speed of sound (x1 = 0.0523): 1623.2 ± 1.2 m/s | speed of sound (x1 = 0.0539): 1625.4 ± 1.2 m/s | speed of sound (x1 = 0.0554): 1627.5 ± 1.2 m/s | speed of sound (x1 = 0.057): 1629.7 ± 1.2 m/s | speed of sound (x1 = 0.0588): 1631.9 ± 1.2 m/s | speed of sound (x1 = 0.0607): 1634.3 ± 1.2 m/s | speed of sound (x1 = 0.0624): 1636.4 ± 1.2 m/s | speed of sound (x1 = 0.0647): 1639 ± 1.2 m/s | speed of sound (x1 = 0.0672): 1641.8 ± 1.2 m/s | speed of sound (x1 = 0.0698): 1644.5 ± 1.2 m/s | speed of sound (x1 = 0.0724): 1647.1 ± 1.2 m/s | speed of sound (x1 = 0.0743): 1648.9 ± 1.2 m/s | speed of sound (x1 = 0.0774): 1651.7 ± 1.2 m/s | speed of sound (x1 = 0.0814): 1655.1 ± 1.2 m/s | speed of sound (x1 = 0.0847): 1657.7 ± 1.2 m/s | speed of sound (x1 = 0.0877): 1659.9 ± 1.2 m/s | speed of sound (x1 = 0.0907): 1661.9 ± 1.2 m/s | speed of sound (x1 = 0.0941): 1664.1 ± 1.2 m/s | speed of sound (x1 = 0.0968): 1665.7 ± 1.2 m/s | speed of sound (x1 = 0.0975): 1666.1 ± 1.2 m/s | speed of sound (x1 = 0.1007): 1667.9 ± 1.2 m/s | speed of sound (x1 = 0.1013): 1668.2 ± 1.2 m/s | speed of sound (x1 = 0.1045): 1669.8 ± 1.2 m/s | speed of sound (x1 = 0.1057): 1670.4 ± 1.2 m/s | speed of sound (x1 = 0.108): 1671.4 ± 1.2 m/s | speed of sound (x1 = 0.1105): 1672.6 ± 1.2 m/s | speed of sound (x1 = 0.1112): 1672.8 ± 1.2 m/s | speed of sound (x1 = 0.1142): 1674 ± 1.2 m/s | speed of sound (x1 = 0.1158): 1674.7 ± 1.2 m/s | speed of sound (x1 = 0.1173): 1675.2 ± 1.2 m/s | speed of sound (x1 = 0.1201): 1676.2 ± 1.2 m/s | speed of sound (x1 = 0.1217): 1676.7 ± 1.2 m/s | speed of sound (x1 = 0.1233): 1677.2 ± 1.2 m/s | speed of sound (x1 = 0.1262): 1678.1 ± 1.2 m/s
